Assay results reported in patent US20230143612A1 (Arbutus Biopharma Corporation, priority 2020, published 2023).

Molecular target: PD-L1 His protein / PD-1 Fc protein (Homo sapiens, UniProt Q9NZQ7)
Test: HTRF Assay (PD-1/PD-L1 interaction)
Format: binding
Settings: PD-L1 His 6 nM, PD-1 Fc 6 nM
How it was run: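 Compounds tested from 20 μM down to 0.001 μM (3-fold) against 6 nM PD-L1 His and 6 nM PD-1 Fc, 15 min room temperature incubation. Detection after 1 h at room temperature with Tb cryptate anti-6HIS and XL665 anti-human IgG reagents (mixture at 0.35 nM and 6.7 nM), HTRF signal.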

Sequence of PD-L1 His protein / PD-1 Fc protein (Q9NZQ7 19-238 limits assumed): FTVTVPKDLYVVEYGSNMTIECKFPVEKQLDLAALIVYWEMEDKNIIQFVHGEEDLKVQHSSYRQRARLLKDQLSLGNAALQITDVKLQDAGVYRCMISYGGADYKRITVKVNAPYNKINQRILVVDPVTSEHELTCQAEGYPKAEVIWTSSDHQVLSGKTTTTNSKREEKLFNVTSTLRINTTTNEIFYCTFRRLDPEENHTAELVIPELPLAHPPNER

Row | SMILES | IC50 [nM]
1 | CNC(=O)C[C@H](O)CNCc1cnc2cc(-c3cccc(-c4cccc(-c5cc(F)c(CNC[C@@H]6CCC(=O)N6)c(OC)n5)c4Cl)c3Cl)ccn2c1=O [Example 293, (3S)-4-[[8-[2-Chloro-3-[2-chloro-3-[4-fluoro-6-methoxy-5-[[[(2S)-5-oxopyrrolidin-2-yl]methylamino]methyl]-2-pyridyl]phenyl]phenyl]-4-oxo-pyrido[1,2-a]pyrimidin-3-yl]methylamino]-3-hydroxy-N-methyl-butanamide] | 0.1
2 | COC(=O)CNCc1cnc2cc(-c3cccc(-c4cccc(-c5ccc(CNC[C@@H]6CCC(=O)N6)c(OC)n5)c4Cl)c3Cl)cc(C)n2c1=O [Example 294, (S)-Methyl 2-(((8-(2,2′-dichloro-3′-(6-methoxy-5-((((5-oxopyrrolidin-2-yl)methyl)amino)methyl)pyridin-2-yl)-[1,1′-biphenyl]-3-yl)-6-methyl-4-oxo-4H-pyrido[1,2-a]pyrimidin-3-yl)methyl)amino)acetate] | 0.4
3 | COC(=O)[C@H]1CCN(Cc2cnc3cc(-c4cccc(-c5cccc(-c6ccc(CNC[C@@H]7CCC(=O)N7)c(OC)n6)c5Cl)c4Cl)cc(C)n3c2=O)C1 [Example 295, (S)-Methyl 1-((8-(2,2′-dichloro-3′-(6-methoxy-5-(((((S)-5-oxopyrrolidin-2-yl)methyl)amino)methyl)pyridin-2-yl)-[1,1′-biphenyl]-3-yl)-6-methyl-4-oxo-4H-pyrido[1,2-a]pyrimidin-3-yl)methyl)pyrrolidine-3-carboxylate] | 0.1
4 | COC(=O)C1CN(Cc2c(C)nc3cc(-c4cccc(-c5cccc(-c6ccc(CNC[C@@H]7CCC(=O)N7)c(OC)n6)c5Cl)c4Cl)ccn3c2=O)C1 [Example 296, (S)-Methyl 1-((8-(2,2′-dichloro-3′-(6-methoxy-5-((((5-oxopyrrolidin-2-yl)methyl)amino)methyl)pyridin-2-yl)-[1,1′-biphenyl]-3-yl)-2-methyl-4-oxo-4H-pyrido[1,2-a]pyrimidin-3-yl)methyl)azetidine-3-carboxylate] | 0.5
5 | COc1nc(-c2cccc(-c3cccc(-c4ccn5c(=O)c(CNCC(F)F)cnc5c4)c3Cl)c2Cl)ccc1CNC[C@@H]1CCC(=O)N1 [Example 297, 8-[2-Chloro-3-[2-chloro-3-[6-methoxy-5-[[[(2S)-5-oxopyrrolidin-2-yl]methylamino]methyl]-2-pyridyl]phenyl]phenyl]-3-[(2,2-difluoroethylamino)methyl]pyrido[1,2-a]pyrimidin-4-one] | 320
6 | COc1nc(-c2cccc(-c3cccc(-c4ccn5c(=O)c(CNC[C@H](C)N)cnc5c4)c3Cl)c2Cl)ccc1CNC[C@@H]1CCC(=O)N1 [Example 298, 3-[[[(2S)-2-Aminopropyl]amino]methyl]-8-[2-chloro-3-[2-chloro-3-[6-methoxy-5-[[[(2S)-5-oxopyrrolidin-2-yl]methylamino]methyl]-2-pyridyl]phenyl]phenyl]pyrido[1,2-a]pyrimidin-4-one] | 25
7 | COC(=O)N(C)CCN(C)Cc1ccc(-c2cccc(-c3cccc(-c4ccn5c(=O)c(CN(C)CCN(C)C(=O)OC)cnc5c4)c3Cl)c2Cl)nc1OC [Example 299, methyl (2-(((8-(2,2′-dichloro-3′-(6-methoxy-5-(((2-((methoxycarbonyl)(methyl)amino)ethyl)(methyl)amino)methyl)pyridin-2-yl)-[1,1′-biphenyl]-3-yl)-4-oxo-4H-pyrido[1,2-a]pyrimidin-3-yl)methyl)(methyl)amino)ethyl)(methyl)carbamate] | 3000
8 | COc1nc(-c2cccc(-c3cccc(-c4ccn5c(=O)c(CNCC(F)(F)CO)cnc5c4)c3Cl)c2Cl)ccc1CNC[C@@H]1CCC(=O)N1 [Example 300, (S)-8-(2,2′-Dichloro-3′-(6-methoxy-5-((((5-oxopyrrolidin-2-yl)methyl)amino)methyl)pyridin-2-yl)-[1,1′-biphenyl]-3-yl)-3-(((2,2-difluoro-3-hydroxypropyl)amino)methyl)-4H-pyrido[1,2-a]pyrimidin-4-one] | 130
9 | COc1nc(-c2cccc(-c3cccc(-c4ccn5c(=O)c(CNCC6(CO)CC6)cnc5c4)c3Cl)c2Cl)ccc1CNC[C@@H]1CCC(=O)N1 [Example 301, (S)-8-(2,2′-Dichloro-3′-(6-methoxy-5-((((5-oxopyrrolidin-2-yl)methyl)amino)methyl)pyridin-2-yl)-[1,1′-biphenyl]-3-yl)-3-((((1-(hydroxymethyl)cyclopropyl)methyl)amino)methyl)-4H-pyrido[1,2-a]pyrimidin-4-one] | 40
10 | COc1nc(-c2cccc(-c3cccc(-c4ccn5c(=O)c(CNC[C@H](C)OC)cnc5c4)c3Cl)c2Cl)ccc1CNC[C@@H]1CCC(=O)N1 [Example 302, 8-[2-Chloro-3-[2-chloro-3-[6-methoxy-5-[[[(2S)-5-oxopyrrolidin-2-yl]methylamino]methyl]-2-pyridyl]phenyl]phenyl]-3-[[[(2S)-2-methoxypropyl]amino]methyl]pyrido[1,2-a]pyrimidin-4-one] | 35
11 | COc1nc(-c2cccc(-c3cccc(-c4ccn5c(=O)c(CNCC(F)(F)F)cnc5c4)c3Cl)c2Cl)ccc1CNC[C@@H]1CCC(=O)N1 [Example 303, 8-[2-Chloro-3-[2-chloro-3-[6-methoxy-5-[[[(2S)-5-oxopyrrolidin-2-yl]methylamino]methyl]-2-pyridyl]phenyl]phenyl]-3-[(2,2,2-trifluoroethylamino)methyl]pyrido[1,2-a]pyrimidin-4-one] | 0.4
12 | COC(=O)C1CN(Cc2cnc3cc(-c4cccc(-c5cccc(-c6ccc(CNC[C@@H]7CCC(=O)N7)c(OC)n6)c5Cl)c4Cl)ncc3c2)C1 [Example 304, (S)-Methyl 1-((7-(2,2′-dichloro-3′-(6-methoxy-5-((((5-oxopyrrolidin-2-yl)methyl)amino)methyl)pyridin-2-yl)-[1,1′-biphenyl]-3-yl)-1,6-naphthyridin-3-yl)methyl)azetidine-3-carboxylate] | 0.2
13 | COC(=O)CNCc1cnc2cc(-c3cccc(-c4cccc(-c5ccc(CNC[C@@H]6CCC(=O)N6)c(OC)n5)c4Cl)c3Cl)ncc2c1 [Example 305, (S)-Methyl 2-(((7-(2,2′-dichloro-3′-(6-methoxy-5-((((5-oxopyrrolidin-2-yl)methyl)amino)methyl)pyridin-2-yl)-[1,1′-biphenyl]-3-yl)-1,6-naphthyridin-3-yl)methyl)amino)acetate] | 0.4
14 | COc1nc(-c2cccc(-c3cccc(-c4ccn5c(=O)c(CNC[C@@H]6CCO6)cnc5c4)c3Cl)c2Cl)ccc1CNC[C@@H]1CCC(=O)N1 [Example 306, 8-[2-Chloro-3-[2-chloro-3-[6-methoxy-5-[[[(2S)-5-oxopyrrolidin-2-yl]methylamino]methyl]-2-pyridyl]phenyl]phenyl]-3-[[[(2S)-oxetan-2-yl]methylamino]methyl]pyrido[1,2-a]pyrimidin-4-one] | 4.8
15 | COc1nc(-c2cccc(-c3cccc(-c4ccn5c(=O)c(CNC[C@@H]6CCCO6)cnc5c4)c3Cl)c2Cl)ccc1CNC[C@@H]1CCC(=O)N1 [Example 307, 8-[2-Chloro-3-[2-chloro-3-[6-methoxy-5-[[[(2S)-5-oxopyrrolidin-2-yl]methylamino]methyl]-2-pyridyl]phenyl]phenyl]-3-[[[(2S)-tetrahydrofuran-2-yl]methylamino]methyl]pyrido[1,2-a]pyrimidin-4-one] | 37
16 | COc1nc(-c2cccc(-c3cccc(-c4cc(C)n5c(=O)c(CNCCO)cnc5c4)c3Cl)c2Cl)ccc1CNC[C@@H]1CCC(=O)N1 [Example 308, (S)-8-(2,2′-Dichloro-3′-(6-methoxy-5-((((5-oxopyrrolidin-2-yl)methyl)amino)methyl)pyridin-2-yl)-[1,1′-biphenyl]-3-yl)-3-(((2-hydroxyethyl)amino)methyl)-6-methyl-4H-pyrido[1,2-a]pyrimidin-4-one] | 22
17 | COc1nc(-c2cccc(-c3cccc(-c4cn5c(CNC[C@@H]6CCC(=O)N6)cnc5cn4)c3Cl)c2Cl)ccc1CNC[C@@H]1CCC(=O)N1 [Example 309, (S)-5-((((6-(2,2′-Dichloro-3′-(3-(((((S)-5-oxopyrrolidin-2-yl)methyl)amino)methyl)imidazo[1,2-a]pyrazin-6-yl)-[1,1′-biphenyl]-3-yl)-2-methoxypyridin-3-yl)methyl)amino)methyl)pyrrolidin-2-one] | 0.3
18 | COc1nc(-c2cccc(-c3cccc(-c4cnc5c(CNC[C@@H]6CCC(=O)N6)cnn5c4)c3Cl)c2Cl)ccc1CNC[C@@H]1CCC(=O)N1 [Example 310, (S)-5-((((6-(2,2′-Dichloro-3′-(3-(((((S)-5-oxopyrrolidin-2-yl)methyl)amino)methyl)pyrazolo[1,5-a]pyrimidin-6-yl)-[1,1′-biphenyl]-3-yl)-2-methoxypyridin-3-yl)methyl)amino)methyl)pyrrolidin-2-one] | 0.2
19 | COc1nc(-c2cccc(-c3cccc(-c4cnc5cc(CNC[C@@H]6CCC(=O)N6)oc5c4)c3Cl)c2Cl)ccc1CNC[C@@H]1CCC(=O)N1 [Example 311, (S)-5-((((6-(2,2′-Dichloro-3′-(2-(((((S)-5-oxopyrrolidin-2-yl)methyl)amino)methyl)furo[3,2-b]pyridin-6-yl)-[1,1′-biphenyl]-3-yl)-2-methoxypyridin-3-yl)methyl)amino)methyl)pyrrolidin-2-one] | 5
20 | COc1nc(-c2cccc(-c3cccc(-c4ccc5c(n4)nc(CNC[C@@H]4CCC(=O)N4)n5C)c3Cl)c2Cl)ccc1CNC[C@@H]1CCC(=O)N1 [Example 312, (S)-5-((((6-(2,2′-Dichloro-3′-(1-methyl-2-(((((S)-5-oxopyrrolidin-2-yl)methyl)amino)methyl)-1H-imidazo[4,5-b]pyridin-5-yl)-[1,1′-biphenyl]-3-yl)-2-methoxypyridin-3-yl)methyl)amino)methyl)pyrrolidin-2-one] | 0.1
